Drawing on patent US20260125359A1, “HETEROARYL COMPOUNDS AS MULTI-TARGET PROTEIN KINASE INHIBITORS” (FUJIAN HAIXI PHARMACEUTICALS CO., LTD., priority 2023, published 2026), this text covers inhibition for 19 compounds.

In one experiment the target is PDGFR-α (Homo sapiens, UniProt P16234). Put plainly: PDGFR-α in vitro kinase activity assay (HTRF kinEASE TK). The class given is biochemical. The note with it: for inhibition at 0.01 µM: compound 10 nM, read-out: PDGFRα inhibition rate, 10 nM; for inhibition at 0.1 µM: compound 100 nM, read-out: PDGFRα inhibition rate, 100 nM. The source says: (§1) CSF-1R, PDGFR-α, KDR (VEGFR2) and KIT in vitro Kinase Activity Assay:
(§2) • ENVISION (Perkinelmer, 2104) • White 384-well MicroPlate (Cat #264706, Nunc) • HTRF kinEASE TK kit main reagents (Cat #62TKOPEC, Cisbio) • TK-biotin substrate • Streptavidin-XL665 • TK Antibody-Cryptate • 5× Enzymatic buffer (5×KB) • Staphylococcal enterotoxin B (SEB) • HTRF Detection buffer • CSF-1R (Cat #PV3249, Invitrogen) • PDGFR-α (Cat #PV3811, Invitrogen) • KDR (Cat #PV3660, Invitrogen) • KIT (Cat #08-156, Carna) • ATP 10 mM (Cat #PV3227, Invitrogen) • DTT 1 M (Cat #D5545, Sigma) • MgCl2 1 M (Cat #M8266, Sigma) • MnCl2 1 M (Cat #244589, Sigma)
(§3) Dilute Substrate-TK and ATP to 5× of the reaction concentration using 1× Kinase Buffer.
(§4) Prepare the 5× enzyme working solution using 1× Kinase Buffer.
(§5) Prepare the 4×Sa-XL665 working solution using Detection Buffer.
(§6) Dilute TK-Ab-Cryptate 100 times using Detection Buffer to prepare the working solution.
(§7) After all reagents were prepared according to the methods described above, except for the enzyme, they were equilibrated to room temperature before starting the sample addition. • a) First, 2.5% DMSO solutions were prepared separately using the pre-prepared 1× kinase buffer (DMSO concentrations that were too high could affect the reaction, so the final concentration of DMSO was controlled at 1%). Then, the corresponding 2.5% DMSO solution for the enzyme was used to dilute the test compounds. Compounds were screened with two concentrations of 100 nM and 10 nM. Except for the control wells, 4 μL of the diluted test compound solution was added to the reaction wells, and 4 μL of the pre-prepared 2.5% DMSO solution was added to the control wells. • b) 2 μL of the pre-prepared TK-biotin substrate solution at the corresponding concentration for the kinase was added to all reaction wells. • c) 2 μL of the pre-prepared enzyme solution at the corresponding concentration was added to all reaction wells except the negative control wells. For the negative control wells, 2 μL of 1× kinase buffer corresponding to the enzyme was added to make up the volume. The plate was sealed with sealing film, mixed gently, and incubated at room temperature for 10 min to allow the compounds to fully interact with the enzyme. • d) 2 μL of the ATP solution at the corresponding concentration for the enzyme was added to all reaction wells to initiate the kinase reaction. ATP concentrations and reaction times for enzyme screening are shown in Table 26 • e) Five minutes before the end of the kinase reaction, the detection solution was prepared. The detection buffer from the kit was used to prepare detection solutions for Streptavidin-XL665 and TK antibody europium cryptate (1:100) at the appropriate concentrations for the two enzymes. • f) After the kinase reaction was completed, 5 μL of the diluted Streptavidin-XL665 solution was added to all reaction wells. After mixing, the diluted TK antibody europium cryptate detection solution was immediately added. • g) The plate was sealed and mixed, incubated at room temperature for 1 hour, and the fluorescence signal was detected using the ENVISION (PerkinElmer) instrument (excitation at 320 nm, emission at 665 nm and 615 nm). The inhibition rate for each well was calculated based on the full-activity control wells and background signal wells, and the average value of the replicates was taken.

For another experiment, the target named is KDR (VEGFR2) (Homo sapiens, UniProt P35968). The experiment in a line: KDR (VEGFR2) in vitro kinase activity assay (HTRF kinEASE TK). The format is biochemical. The conditions noted are these: for inhibition at 0.01 µM: compound 10 nM, read-out: VEGFR2 inhibition rate, 10 nM; for inhibition at 0.1 µM: compound 100 nM, read-out: VEGFR2 inhibition rate, 100 nM.
Source text: as §1, §2, §3, §4, §5, §6, §7
For orientation: TR-FRET usually uses a lanthanide donor and a delayed reading to cut background.

KDR (VEGFR2), sequence (P35968 20-1356): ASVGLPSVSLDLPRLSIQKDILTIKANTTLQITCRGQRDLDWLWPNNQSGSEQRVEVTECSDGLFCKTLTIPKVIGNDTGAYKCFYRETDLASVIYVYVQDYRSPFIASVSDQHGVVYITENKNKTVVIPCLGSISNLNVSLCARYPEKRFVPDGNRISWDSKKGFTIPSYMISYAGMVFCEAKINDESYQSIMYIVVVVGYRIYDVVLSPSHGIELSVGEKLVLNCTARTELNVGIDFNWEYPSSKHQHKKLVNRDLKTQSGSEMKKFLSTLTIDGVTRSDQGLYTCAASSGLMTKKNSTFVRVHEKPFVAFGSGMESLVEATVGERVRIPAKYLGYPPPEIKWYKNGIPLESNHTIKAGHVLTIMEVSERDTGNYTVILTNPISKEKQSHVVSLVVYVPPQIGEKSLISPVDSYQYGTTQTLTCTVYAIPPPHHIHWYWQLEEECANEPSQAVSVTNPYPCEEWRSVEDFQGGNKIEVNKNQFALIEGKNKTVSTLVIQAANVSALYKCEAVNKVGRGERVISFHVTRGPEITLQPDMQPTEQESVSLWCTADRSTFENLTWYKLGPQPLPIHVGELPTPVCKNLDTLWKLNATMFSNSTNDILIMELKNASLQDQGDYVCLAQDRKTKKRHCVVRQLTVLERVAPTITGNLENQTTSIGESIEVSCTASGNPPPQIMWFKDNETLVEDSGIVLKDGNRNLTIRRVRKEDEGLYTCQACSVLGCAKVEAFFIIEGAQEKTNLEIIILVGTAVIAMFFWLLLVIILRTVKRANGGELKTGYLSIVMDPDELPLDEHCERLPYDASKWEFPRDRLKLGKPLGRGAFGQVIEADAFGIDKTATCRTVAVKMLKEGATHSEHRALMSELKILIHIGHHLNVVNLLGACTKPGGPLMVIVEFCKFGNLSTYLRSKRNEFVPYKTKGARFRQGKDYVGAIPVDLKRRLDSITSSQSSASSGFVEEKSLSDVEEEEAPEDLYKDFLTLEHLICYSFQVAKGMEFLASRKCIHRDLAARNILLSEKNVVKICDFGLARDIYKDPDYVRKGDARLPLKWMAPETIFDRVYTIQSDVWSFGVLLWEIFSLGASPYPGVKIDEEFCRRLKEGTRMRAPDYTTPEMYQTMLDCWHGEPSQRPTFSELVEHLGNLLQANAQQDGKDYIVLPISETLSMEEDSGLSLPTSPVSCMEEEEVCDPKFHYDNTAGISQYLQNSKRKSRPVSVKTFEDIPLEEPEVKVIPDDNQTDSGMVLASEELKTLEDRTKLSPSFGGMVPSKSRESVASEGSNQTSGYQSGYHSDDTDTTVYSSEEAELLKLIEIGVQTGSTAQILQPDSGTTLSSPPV
PDGFR-α, sequence (P16234 24-1089): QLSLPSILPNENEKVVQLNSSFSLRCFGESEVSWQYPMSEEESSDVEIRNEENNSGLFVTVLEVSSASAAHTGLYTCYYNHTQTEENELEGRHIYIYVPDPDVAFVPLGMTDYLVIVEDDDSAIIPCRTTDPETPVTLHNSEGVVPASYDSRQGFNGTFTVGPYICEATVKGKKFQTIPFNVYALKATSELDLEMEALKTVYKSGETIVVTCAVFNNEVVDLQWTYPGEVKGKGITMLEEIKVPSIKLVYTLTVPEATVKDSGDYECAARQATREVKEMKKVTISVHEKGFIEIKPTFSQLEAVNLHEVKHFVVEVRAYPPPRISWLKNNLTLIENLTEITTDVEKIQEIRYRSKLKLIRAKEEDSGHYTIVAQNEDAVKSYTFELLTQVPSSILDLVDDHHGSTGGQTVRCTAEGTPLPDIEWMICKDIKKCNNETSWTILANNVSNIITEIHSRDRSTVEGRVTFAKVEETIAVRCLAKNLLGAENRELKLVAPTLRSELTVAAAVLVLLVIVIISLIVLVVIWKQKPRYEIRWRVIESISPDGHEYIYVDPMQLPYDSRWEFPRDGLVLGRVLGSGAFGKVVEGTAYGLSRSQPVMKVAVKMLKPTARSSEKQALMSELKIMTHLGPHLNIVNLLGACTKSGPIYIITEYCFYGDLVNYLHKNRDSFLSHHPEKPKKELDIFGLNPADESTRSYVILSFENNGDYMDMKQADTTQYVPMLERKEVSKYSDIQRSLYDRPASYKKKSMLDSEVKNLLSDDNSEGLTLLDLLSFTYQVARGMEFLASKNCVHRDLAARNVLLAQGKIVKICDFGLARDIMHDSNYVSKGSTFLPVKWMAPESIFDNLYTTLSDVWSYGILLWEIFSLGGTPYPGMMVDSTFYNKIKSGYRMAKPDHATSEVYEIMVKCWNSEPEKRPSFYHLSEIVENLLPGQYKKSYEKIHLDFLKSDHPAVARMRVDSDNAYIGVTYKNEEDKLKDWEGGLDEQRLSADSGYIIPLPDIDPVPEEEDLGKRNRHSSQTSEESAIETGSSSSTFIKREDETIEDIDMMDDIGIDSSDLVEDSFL

For `Cn1cc(-c2cnc(N)c(O[C@H]3CCc4c(C(=O)Nc5cccc(C6CC6)c5)cccc43)c2)cn1` [Compound 4, (S)-1-((2-amino-5-(1-methyl-1H-pyrazol-4-yl)pyridin-3-yl)oxy)-N-(3-cyclopropylphenyl)-2,3-dihydro-1H-indene-4-carboxamide], at PDGFR-α, the inhibition at 0.01 µM was 90.9% and the inhibition at 0.1 µM was found to be 96.8%. On KDR (VEGFR2), the inhibition at 0.01 µM was found to be 97.8% and the inhibition at 0.1 µM was 100%.
For `Cc1cccc(NC(=O)c2cccc3c2CC[C@@H]3Nc2cncc(-c3cnn(C)c3)c2)c1` [Compound 13, (S)-1-((5-(1-methyl-1H-pyrazol-4-yl)pyridin-3-yl)amino)-N-(m-tolyl)-2,3-dihydro-1H-indene-4-carboxamide], at PDGFR-α, the inhibition at 0.01 µM came to 78.7% and the inhibition at 0.1 µM came to 99.1%. At KDR (VEGFR2), the inhibition at 0.01 µM worked out at 95.3% and the inhibition at 0.1 µM was found to be 99.5%.
For the compound `Cn1cc(-c2cncc(N[C@H]3CCc4c(C(=O)Nc5cncc(Cl)c5)cccc43)c2)cn1` [Compound 14aa, (S)—N-(5-chloropyridin-3-yl)-1-((5-(1-methyl-1H-pyrazol-4-yl)pyridin-3-yl)amino)-2,3-dihydro-1H-indene-4-carboxamide], the inhibition at 0.01 µM on PDGFR-α amounted to 72.7%; on KDR (VEGFR2), 83.1%. Besides, the inhibition at 0.1 µM on PDGFR-α stood at 98.7%; at KDR (VEGFR2) it was 99.6%.
In the same order, the values of `Cn1cc(-c2cncc(N[C@H]3CCc4c(C(=O)Nc5ccc(C(F)(F)F)nc5)cccc43)c2)cn1` [Compound 14ah] are 67.6%, 26.8%, 99.4% and 58.1%.
On to `CN1CCc2ccc(NC(=O)c3cccc4c3CC[C@@H]4Nc3cncc(-c4cnn(C)c4)c3)cc2C1` [Compound 14ap], for which the inhibition at 0.01 µM was 72.8% on PDGFR-α and 14.7% at KDR (VEGFR2). The inhibition at 0.1 µM worked out at 98.8% at PDGFR-α and 66.2% on KDR (VEGFR2).
In the case of `Cc1cncc(NC(=O)c2cccc3c2CC[C@@H]3Nc2cncc(-c3cnn(C)c3)c2)c1` [Compound 14as], at PDGFR-α, the inhibition at 0.01 µM was 91% and the inhibition at 0.1 µM is 101%. Besides, at KDR (VEGFR2), the inhibition at 0.01 µM turned out to be 88.4% and the inhibition at 0.1 µM was determined as 102%.
On to `CN1CCc2nc(NC(=O)c3cccc4c3CC[C@@H]4Nc3cncc(-c4cnn(C)c4)c3)sc2C1` [Compound 14ba], for which the inhibition at 0.01 µM on PDGFR-α came to 75.5%; at KDR (VEGFR2), 29.2%. The inhibition at 0.1 µM is 100% at PDGFR-α and 82.6% at KDR (VEGFR2).
Take `Cc1cccc(C(=O)Nc2cccc3c2CC[C@@H]3Oc2cncc(-c3cnn(C)c3)c2)c1` [Compound 15, (S)-3-methyl-N-(1-((5-(1-methyl-1H-pyrazol-4-yl)pyridin-3-yl)oxy)-2,3-dihydro-1H-inden-4-yl)benzamide]: on PDGFR-α, the inhibition at 0.01 µM was found to be 39.6% and the inhibition at 0.1 µM came to 64%. Moreover, on KDR (VEGFR2), the inhibition at 0.01 µM is 60% and the inhibition at 0.1 µM came to 97.3%.
For `Cn1cc(-c2cncc(O[C@H]3CCc4c(C(=O)Nc5cncc(Cl)c5)cccc43)c2)cn1` [Compound 19a, (S)—N-(5-chloropyridin-3-yl)-1-((5-(1-methyl-1H-pyrazol-4-yl)pyridin-3-yl)oxy)-2,3-dihydro-1H-indene-4-carboxamide], in that order: 40.5%, 86.2%, 92.3% and 101%.
Take `Cn1cc(-c2cncc(O[C@H]3CCc4c(C(=O)Nc5cccc(C6CC6)c5)cccc43)c2)cn1` [Compound 19b]: the inhibition at 0.01 µM on PDGFR-α is 22.9%; on KDR (VEGFR2), 93.6%. In addition, the figures for the inhibition at 0.1 µM on PDGFR-α and at KDR (VEGFR2) were 97.1% and 102%, respectively.
`CN1CCc2nc(NC(=O)c3cccc4c3CC[C@@H]4Oc3cncc(-c4cnn(C)c4)c3)sc2C1` [Compound 19f]: on PDGFR-α, the inhibition at 0.01 µM amounted to 14.5% and the inhibition at 0.1 µM was 67.2%. Moreover, on KDR (VEGFR2), the inhibition at 0.01 µM turned out to be 22.7% and the inhibition at 0.1 µM amounted to 88.9%.
For `CN(C)Cc1cncc(NC(=O)c2cccc3c2CC[C@@H]3Oc2cncc(-c3cnn(C)c3)c2)c1` [Compound 19h], in that order: 3.8%, 68.3%, 24.6% and 84.4%.
In the same order, the values of `Cc1cncc(NC(=O)c2cccc3c2CC[C@@H]3Oc2cncc(-c3cnn(C)c3)c2)c1` [Compound 19j] are 23.5%, 79.7%, 91.7% and 102%.
As for `Cc1cc(NC(=O)c2cccc3c2CC[C@@H]3Oc2cncc(-c3cnn(C)c3)c2)cc(C)n1` [Compound 19k, (S)—N-(2,6-dimethylpyridin-4-yl)-1-((5-(1-methyl-1H-pyrazol-4-yl)pyridin-3-yl)oxy)-2,3-dihydro-1H-indene-4-carboxamide], on PDGFR-α, the inhibition at 0.01 µM is 13.9% and the inhibition at 0.1 µM stood at 74.3%. For the same compound, at KDR (VEGFR2), the inhibition at 0.01 µM came to 53% and the inhibition at 0.1 µM turned out to be 99.1%.
In the case of `CN(c1cncc(-c2cnn(C)c2)c1)[C@H]1CCc2c(C(=O)Nc3cncc(Cl)c3)cccc21` [Compound 21, (S)—N-(5-chloropyridin-3-yl)-1-(methyl (5-(1-methyl-1H-pyrazol-4-yl)pyridin-3-yl)amino)-2,3-dihydro-1H-indene-4-carboxamide], on PDGFR-α, the inhibition at 0.01 µM turned out to be 7.7% and the inhibition at 0.1 µM was determined as 38.7%. Also, at KDR (VEGFR2), the inhibition at 0.01 µM stood at 22.3% and the inhibition at 0.1 µM amounted to 62.6%.
With `CN(c1cncc(-c2cnn(C)c2)c1)[C@H]1CCc2c(C(=O)Nc3cccc(C4CC4)c3)cccc21` [Compound 22a, (S)—N-(3-cyclopropylphenyl)-1-(methyl (5-(1-methyl-1H-pyrazol-4-yl)pyridin-3-yl)amino)-2,3-dihydro-1H-indene-4-carboxamide], on PDGFR-α, the inhibition at 0.01 µM was 62.9% and the inhibition at 0.1 µM was 60.5%. In addition, on KDR (VEGFR2), the inhibition at 0.01 µM is 52.5% and the inhibition at 0.1 µM amounted to 96.4%.
For the compound `Cn1cc(-c2cncc(N[C@H]3CCc4c(C(=O)Nc5nn(C)c6ccccc56)cccc43)n2)cn1` [Compound 27g, (S)—N-(1-methyl-1H-indazol-3-yl)-1-((6-(1-methyl-1H-pyrazol-4-yl)pyrazin-2-yl)amino)-2,3-dihydro-1H-indene-4-carboxamide], the inhibition at 0.01 µM on PDGFR-α amounted to 94.7%; on KDR (VEGFR2), 88.9%. The inhibition at 0.1 µM at PDGFR-α was 98.9%; on KDR (VEGFR2) it was 100%.
`Cn1cc(-c2cncc(N[C@H]3CCc4c(Nc5cc(C(C)(C)C)on5)cccc43)c2)cn1` [Compound 41, (S)—N^4-(5-(tert-butyl)isoxazol-3-yl)-N^1-(5-(1-methyl-1H-pyrazol-4-yl)pyridin-3-yl)-2,3-dihydro-1H-indene-1,4-diamine]: at PDGFR-α, the inhibition at 0.01 µM was determined as 55.5% and the inhibition at 0.1 µM was 100%. Besides, at KDR (VEGFR2), the inhibition at 0.01 µM came out at 18.6% and the inhibition at 0.1 µM turned out to be 63.9%.
`Cn1cc(-c2cncc(N[C@H]3CCc4c(Nc5noc(C(C)(C)C)n5)cccc43)c2)cn1` [Compound 42o]: the inhibition at 0.01 µM at PDGFR-α stood at 15.4%; on KDR (VEGFR2), 28.9%. Also, the inhibition at 0.1 µM at PDGFR-α stood at 57.8%; on KDR (VEGFR2), 65.6%.

A word on the inhibition: it is the change of the read-out against control, counted positive when it falls.
